From US20150189882A1, “ACTIVE INGREDIENT COMBINATIONS HAVING INSECTICIDAL AND ACARICIDAL PROPERTIES” (priority 2011, published 2015) come the findings set out here.

Data set [1] concerns Tetranychus urticae (OP-resistant). In words: Tetranychus urticae - test (OP-resistant), French bean leaf discs. Conditions: for mortality at 500 g/ha: 500 g ai/ha; for mortality at 0.16 g/ha: 0.16 g ai/ha. It counts as in vivo. Here is the method:
To produce a suitable preparation of active compound, 1 part by weight of active compound is mixed with the stated amount of solvent and emulsifier, and the concentrate is diluted with emulsifier-containing water to the desired concentration. To produce a suitable preparation of a biological suspension the cells or spores are diluted with emulsifier-containing water to the desired concentration.
Leaf discs of French beans (Phaseolus vulgaris) infected with all instars of the Two-spotted spider mite (Tetranychus urticae), are sprayed with a preparation of the active ingredient at the desired concentration.
After the specified period of time mortality in % is determined. 100% means that all spider mites have been killed; 0% means that none of the spider mites have been killed.

In data set [2] the test system is Myzus persicae. In words: whole plant or invertebrate. The following applies: in Brassica rapa, foliar.
For another data set, the system named is Spodoptera frugiperda. The data set can be described thus: Spodoptera frugiperda - spray application. The data set is classed as in vivo. Conditions: for mortality at 20 g/ha: 20 g ai/ha. How it is done:
To produce a suitable preparation of active compound, 1 part by weight of active compound is mixed with the stated amount of solvent and emulsifier, and the concentrate is diluted with emulsifier-containing water to the desired concentration. To produce a suitable preparation of a biological suspension the cells, viruses or spores are diluted with emulsifier-containing water to the desired concentration.
Cabbage (Brassica oleracea) leaf-discs are sprayed with a preparation of the active ingredient at the desired concentration. Once dry, the leaf discs are infested with larvae of the fall army worm (Spodoptera frugiperda).
After the specified period of time, mortality in % is determined. 100% means that all the caterpillars have been killed; 0% means that none of the caterpillars have been killed. The mortality values thus determined are recalculated using the Colby-formula.

Data set [3] deals with Phaedon cochleariae larvae. The data set can be described thus: whole plant or invertebrate.
In data set [4] the test system is Phaedon cochleariae larvae.
The test system of data set [5] is Myzus persicae.
Setting [6] is: Tetranychus urticae, foliar, read-out: Mortality in % after 2^d.
The mark [7] stands for this setting: read-out: Mortality in % after 1^d.
The mark [8] stands for this setting: Spodoptera frugiperda, read-out: Mortality in % after 2^d.
The mark [9] stands for this setting: read-out: Mortality in % after 6^d.
Where [10] appears, read: read-out: Mortality in % after 2^d.
The mark [11] stands for this setting: Tetranychus urticae, foliar, 0.8 g ai/ha, read-out: Mortality in % after 2^d.
The mark [12] stands for this setting: Spodoptera frugiperda, 0.16 g ai/ha, read-out: Mortality in % after 6^d.
Where [13] appears, read: Tetranychus urticae, foliar, 4 g ai/ha, read-out: Mortality in % after 2^d.

Read-outs that look alike come from different tables or passages of the source.

Consider `CCOP(=S)(OCC)Oc1nc(Cl)c(Cl)cc1Cl` [Chlorpyrifos], for which the mortality at 4 g/ha in data set [1] (setting [6]) came to 0%; with Myzus persicae [2] (setting [7]), 70%. In addition, the mortality at 100 g/ha with Spodoptera frugiperda (setting [8]) amounted to 50%.

Take `N#C/N=C1\SCCN1Cc1ccc(Cl)nc1` [Thiacloprid]: the mortality at 20 g/ha in data set [3] (setting [9]) is 33%; in the data set with Spodoptera frugiperda (Spodoptera frugiperda, read-out: Mortality in % after 6^d), 0%. Regarding Emamectin benzoate [Emamectin-benzoate], the “Mortality in % after 2^d” value in data set [4] (0.8 g ai/ha) stood at 67%.

As to `CN/C(=N/CC1CCOC1)N[N+](=O)[O-]` (stereo not drawn) [Dinotefuran], the mortality at 20 g/ha (in data set [3] (setting [9]); in the data set with Myzus persicae [2] (setting [7])) was 0% each time. As to `CN1COCN(Cc2cnc(Cl)s2)/C1=N\[N+](=O)[O-]` [Thiamethoxam], in data set [3] (setting [10]), the mortality at 20 g/ha was 67%. With `COC(=O)N(C(=O)N1CO[C@@]2(C(=O)OC)Cc3cc(Cl)ccc3C2=N1)c1ccc(OC(F)(F)F)cc1` [Indoxacarb], the “Mortality in % after 6^d” value in the data set on Spodoptera frugiperda (0.8 g ai/ha) is 50%.

In the case of Spinosad, in data set [1] (0.8 g ai/ha), the “Mortality in % after 2^d” value stood at 0%. As for `CCN(Cc1ccc(Cl)nc1)/C(=C/[N+](=O)[O-])NC` [Nitenpyram], the mortality at 0.8 g/ha in data set [1] (setting [11]) amounted to 0%. Moreover, the mortality at 20 g/ha in data set [3] (setting [9]) amounted to 0%. With Abamectin, in data set [1] (0.032 g ai/ha), the “Mortality in % after 2^d” value is 0%. Take `CC1(C)C(C=C(Cl)Cl)C1C(=O)OC(C#N)c1ccc(F)c(Oc2ccccc2)c1` (stereo not drawn) [Beta-Cyfluthrin, beta-Cyfluthrin]: the “Mortality in % after 6^d” value in data set [4] (0.8 g ai/ha) is recorded as 50%; in the data set on Spodoptera frugiperda (0.8 g ai/ha), 83%.

`Cc1c(F)c(F)c(COC(=O)[C@@H]2[C@H](/C=C(\Cl)C(F)(F)F)C2(C)C)c(F)c1F` (racemic) [Tefluthrin]: the mortality at 0.8 g/ha in data set [1] (setting [11]) worked out at 0%. Besides, the mortality at 20 g/ha in data set [3] (setting [9]) was 50%.

In the case of `O=[N+]([O-])NC1=NCCN1Cc1ccc(Cl)nc1` [Imidacloprid], the mortality at 0.8 g/ha (in data set [1] (setting [11]); in the data set with Myzus persicae [2] (setting [7])) was 0% throughout. In addition, in data set [3] (setting [9]), the mortality at 20 g/ha stood at 0%. In the case of `CC1(C)[C@H](C(=O)O[C@H](C#N)c2cccc(Oc3ccccc3)c2)[C@@H]1/C=C\C(=O)OC(C(F)(F)F)C(F)(F)F` [Acrinathrin], in the data set on Myzus persicae [2] (setting [7]), the mortality at 0.8 g/ha amounted to 80%. In the case of `CC(C)N1C(=O)N(c2ccccc2)CS/C1=N\C(C)(C)C` [Buprofezin], the mortality at 500 g/ha in data set [1] (setting [6]) came out at 0%. On to `Cc1ccc(C(C)C)c(O)c1` [Thymol], for which the mortality at 500 g/ha in data set [1] (Tetranychus urticae, foliar, read-out: Mortality in % after 6^d) came out at 0%. With `C/C(=N\C#N)N(C)Cc1ccc(Cl)nc1` [Acetamiprid], in data set [3] (setting [9]), the mortality at 20 g/ha is 33%. On to `Cc1c(COC(=O)[C@@H]2[C@H](/C=C(\Cl)C(F)(F)F)C2(C)C)cccc1-c1ccccc1` (racemic) [Bifenthrin], for which the mortality at 0.8 g/ha in data set [3] (setting [9]) was determined as 50%. In addition, the mortality at 0.16 g/ha with Spodoptera frugiperda (setting [12]) was 0%. Take Milbemectin: the “Mortality in % after 6^d” value with Myzus persicae [5] (4 g ai/ha) is 70%; with Spodoptera frugiperda (0.8 g ai/ha) it was 0%. With `CC1(C)C(C=C(Cl)Cl)C1C(=O)OC(C#N)c1cccc(Oc2ccccc2)c1` (stereo not drawn) [Cypermethrin], in the data set on Spodoptera frugiperda (Spodoptera frugiperda, 0.8 g ai/ha, read-out: Mortality in % after 6^d), the mortality at 0.8 g/ha amounted to 67%. In the case of `O=C1C=C(N(Cc2ccc(Cl)nc2)CC(F)F)CO1` [Flupyradifurone], the “Mortality in % after 1^d” value in the data set with Myzus persicae [5] (20 g ai/ha) is given as 70%. Besides, the results for the “Mortality in % after 2^d” value in data set [4] (500 g ai/ha) and in data set [1] (0.8 g ai/ha) were 50% and 0%, respectively.

Consider `CC1(C)[C@H](C(=O)O[C@H](C#N)c2cccc(Oc3ccccc3)c2)[C@@H]1C=C(Br)Br` [Deltamethrin], for which, in the data set with Spodoptera frugiperda (Spodoptera frugiperda, 0.032 g ai/ha, read-out: Mortality in % after 6^d), the mortality at 0.032 g/ha stood at 0%.

As to Lepimectin, in data set [4] (4 g ai/ha), the “Mortality in % after 2^d” value was found to be 50%.

On to `CC(=O)N1C(=O)N(NCc2cccnc2)Cc2cc(C(F)(C(F)(F)F)C(F)(F)F)ccc21` [Pyrifluquinazone, Pyrifluquinazon], for which the “Mortality in % after 2^d” value in data set [1] (0.8 g ai/ha) came to 0%.

On to `O=C(NC(=O)c1ccccc1Cl)Nc1ccc(OC(F)(F)F)cc1` [Triflumuron], for which the mortality at 20 g/ha (in data set [3] (setting [9]); in the data set with Spodoptera frugiperda (setting [8])) was 0% in each case.

With `CC1(C)[C@H](C(=O)O[C@H](C#N)c2cccc(Oc3ccccc3)c2)[C@@H]1/C=C(\Cl)C(F)(F)F` [Gamma-Cyhalothrin, gamma-Cyhalothrin], in the data set with Spodoptera frugiperda (0.16 g ai/ha), the “Mortality in % after 2^d” value is listed as 0%. `CC1(C)C(C=C(Cl)Cl)C1C(=O)OC(C#N)c1cccc(Oc2ccccc2)c1` (stereo not drawn) [Alpha-Cypermethrin, alpha-Cypermethrin]: the mortality at 0.16 g/ha in data set [1] (setting [6]) is 0%. For the same molecule, the mortality at 4 g/ha in data set [3] (setting [9]) was determined as 0%. `C/C=C(\C)C(=O)O[C@H]1C[C@@H](OC(C)=O)[C@@]2(C(=O)OC)CO[C@H]3[C@@H](O)[C@@](C)([C@]45O[C@@]4(C)[C@H]4C[C@@H]5O[C@@H]5OC=C[C@@]54O)[C@H]4[C@]1(CO[C@]4(O)C(=O)OC)[C@@H]32` [Azadirachtin]: the mortality at 100 g/ha stood at 0% in data set [1] (Tetranychus urticae, foliar, 100 g ai/ha, read-out: Mortality in % after 2^d) and 0% in the data set with Myzus persicae [2] (setting [9]). Turning to `CNC(=O)c1cc(Cl)cc(C)c1NC(=O)c1cc(Br)nn1-c1ncccc1Cl` [Chloranthraniliprole, Chlorantraniliprole], the mortality at 0.8 g/ha in data set [3] (setting [9]) was 33%. Also, the mortality at 4 g/ha with Myzus persicae [2] (setting [9]) turned out to be 80%. With `N#Cc1nn(-c2c(Cl)cc(C(F)(F)F)cc2Cl)c(N)c1[S+]([O-])C(F)(F)F` (stereo not drawn) [Fipronil], the mortality at 0.8 g/ha in data set [1] (setting [11]) worked out at 0%. In data set [3] (setting [10]), the mortality at 0.16 g/ha worked out at 0%. On to `O=S(=O)(CCC(F)=C(F)F)c1ncc(Cl)s1` [Fluensulfone], for which the “Mortality in % after 2^d” value in data set [1] (2000 g ai/ha) is reported as 0%.

As to `CC1(C)[C@H](C(=O)O[C@H](C#N)c2cccc(Oc3ccccc3)c2)[C@@H]1/C=C(\Cl)C(F)(F)F` (racemic) [Lambda-Cyhalothrin, lambda-Cyhalothrin], the mortality at 0.8 g/ha in data set [3] (setting [10]) amounted to 67%. Besides, the mortality at 0.16 g/ha was 0% with Myzus persicae [2] (setting [9]) and 33% in the data set on Spodoptera frugiperda (setting [12]). On to `CS/C(C)=N\OC(=O)N(C)SN(C)C(=O)O/N=C(\C)SC` [Thiodicarb], for which the mortality at 4 g/ha in data set [1] (setting [13]) was determined as 0%. For the same molecule, in data set [3] (setting [9]), the mortality at 100 g/ha is 0%. On to `CCc1nn(C)c(C(=O)NCc2ccc(C(C)(C)C)cc2)c1Cl` [Tebufenpyrad], for which the mortality at 4 g/ha in data set [1] (setting [13]) was 0%. With `CN/C(=N\[N+](=O)[O-])NCc1cnc(Cl)s1` [Clothianidin], the mortality at 20 g/ha in data set [3] (setting [9]) was determined as 83%; with Myzus persicae [2] (setting [7]) it was 0%. For the molecule `CC1=NNC(=O)N(/N=C/c2cccnc2)C1` [Pymetrozine], the mortality at 4 g/ha with Myzus persicae [2] (setting [9]) turned out to be 0%. Turning to `O=C(NC(=O)c1c(F)cccc1F)Nc1ccc(Oc2ccc(C(F)(F)F)cc2Cl)cc1F` [Flufenoxuron], in data set [1] (setting [11]), the mortality at 0.8 g/ha came to 0%. The mortality at 20 g/ha in data set [3] (setting [9]) amounted to 0%. For the molecule `CC(c1ccc(C(F)(F)F)nc1)S(C)(=O)=NC#N` (stereo not drawn) [Sulfoxaflor], the mortality at 0.16 g/ha (in data set [1] (setting [6]); in the data set on Myzus persicae [2] (setting [7])) was 0% each time. Also, the mortality at 4 g/ha in data set [3] (setting [9]) is 0%. On to `CCOCn1c(-c2ccc(Cl)cc2)c(C#N)c(Br)c1C(F)(F)F` [Chlorfenapyr], for which the mortality at 0.8 g/ha in data set [1] (setting [11]) came out at 0%. Take Spinetoram: the “Mortality in % after 2^d” value in data set [1] (0.8 g ai/ha) was 0%. Consider `O=C(NC(=O)c1c(F)cccc1F)Nc1ccc(Cl)cc1` [Diflubenzuron], for which the mortality at 4 g/ha in data set [1] (setting [13]) is 0%. Further, the mortality at 100 g/ha in the data set on Spodoptera frugiperda (Spodoptera frugiperda, 100 g ai/ha, read-out: Mortality in % after 2^d) is 67%.

Broadly, the mortality is the share of the test organisms that died.
